ChEMBL document CHEMBL1201862, “PubChem BioAssay data set” (2004)
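Briefly, cells in 96-well plates were exposed to five compound concentrations for 48 h, and endpoints were estimated by linear interpolation. Abbreviation: GI50, concentration required for 50% inhibition of growth.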 Active and inactive are the calls of the source. Rule as the data show it: active = GI50 up to about 1.1 µM and inactive = higher.

Assays:
Experiment in all cases: NCI-60 cell line screen, 48 h
Hs-578T = test system: Hs-578T
HCT-15 = test system: HCT-15
MDA-MB-435 = test system: MDA-MB-435
MDA-MB-231 = test system: MDA-MB-231
786-0 = test system: 786-0
T47D = test system: T47D
U-251 = test system: U-251
SF-295 = test system: SF-295
SNB-75 = test system: SNB-75
CCRF-CEM = test system: CCRF-CEM
DU-145 = test system: DU-145
HT-29 = test system: HT-29
A498 = test system: A498
Malme-3M = test system: Malme-3M
SNB-19 = test system: SNB-19
SF-539 = test system: SF-539
UACC-62 = test system: UACC-62
OVCAR-5 = test system: OVCAR-5
COLO 205 = test system: COLO 205
NCI-H226 = test system: NCI-H226

With `COC1/C=C(C)/C=C/C(C)/C=C/C(=O)OC(/C(C)=C/C=C(\C)CNC(=O)[C@H](CO)NC=O)C(C)/C=C/C=C/C(OC)CC/C=C(C)/C=C/C1` (some centres undefined) the GI50 (Hs-578T) was > 0.214 µM (active), the GI50 (HCT-15) was 0.111 µM and the GI50 (MDA-MB-435) was 0.0224 µM (active). For the same compound, the GI50 (MDA-MB-231) was 0.012 µM (active), the GI50 (786-0) was 0.0288 µM (active) and the GI50 (T47D) was 0.0525 µM (active). For the same compound, the GI50 (U-251) was 0.0673 µM (active), the GI50 (SF-295) was 0.0229 µM (active) and the GI50 (SNB-75) was > 1 µM (active). For the same compound, the GI50 (CCRF-CEM) was 0.0474 µM (active), the GI50 (DU-145) was > 0.312 µM (active) and the GI50 (HT-29) was 0.0125 µM (active). For the same compound, the GI50 (A498) was > 1 µM (active), the GI50 (Malme-3M) was 0.0863 µM (active) and the GI50 (SNB-19) was > 1 µM (active). For the same compound, the GI50 (SF-539) was 0.0281 µM (active), the GI50 (UACC-62) was 0.0251 µM (active) and the GI50 (OVCAR-5) was 0.0328 µM (active).
For `O=C(O)[C@@H]1[C@H](C(=O)O)[C@H](C(=O)O)C[C@@H]1C(=O)O`, the GI50 (Hs-578T) was > 100 µM (inactive), the GI50 (HCT-15) was over 100 µM and the GI50 (MDA-MB-435) was > 100 µM (inactive). The GI50 (MDA-MB-231) was > 100 µM (inactive), the GI50 (786-0) was > 100 µM (inactive) and the GI50 (T47D) was > 100 µM (inactive). For the same compound, the GI50 (U-251) was > 100 µM (inactive), the GI50 (SF-295) was > 100 µM (inactive) and the GI50 (SNB-75) was > 100 µM (inactive). The GI50 (DU-145) was > 100 µM (inactive), the GI50 (HT-29) was > 100 µM (inactive) and the GI50 (COLO 205) was > 100 µM (inactive). The GI50 (A498) was > 100 µM (inactive), the GI50 (Malme-3M) was > 100 µM (inactive) and the GI50 (SNB-19) was > 100 µM (inactive). For the same compound, the GI50 (SF-539) was > 100 µM (inactive), the GI50 (UACC-62) was > 100 µM (inactive) and the GI50 (NCI-H226) was > 100 µM (inactive). For the same compound, the GI50 (OVCAR-5) was > 100 µM (inactive).
`O=C(O)C(Cc1cccs1)C(=O)O` was tested, and the GI50 (Hs-578T) was > 100 µM (inactive), the GI50 (HCT-15) was over 100 µM and the GI50 (MDA-MB-435) was > 100 µM (inactive). For the same compound, the GI50 (MDA-MB-231) was > 100 µM (inactive), the GI50 (786-0) was > 100 µM (inactive) and the GI50 (T47D) was > 100 µM (inactive). The GI50 (U-251) was > 100 µM (inactive), the GI50 (SNB-75) was > 100 µM (inactive) and the GI50 (CCRF-CEM) was > 100 µM (inactive). For the same compound, the GI50 (DU-145) was > 100 µM (inactive), the GI50 (HT-29) was > 100 µM (inactive) and the GI50 (COLO 205) was > 100 µM (inactive). For the same compound, the GI50 (A498) was > 100 µM (inactive), the GI50 (Malme-3M) was > 100 µM (inactive) and the GI50 (SNB-19) was > 100 µM (inactive). The GI50 (UACC-62) was > 100 µM (inactive), the GI50 (NCI-H226) was > 100 µM (inactive) and the GI50 (OVCAR-5) was > 100 µM (inactive).
For `COC(=O)[C@]12CC[C@H]3CN(C(=O)OCc4ccccc4)[C@H]([C@H]31)[C@H](c1ccccc1)N2`, the GI50 (Hs-578T) was > 100 µM (inactive), the GI50 (HCT-15) was 69.3 µM and the GI50 (MDA-MB-435) was 52 µM (inactive). The GI50 (MDA-MB-231) was 59.3 µM (inactive), the GI50 (786-0) was > 100 µM (inactive) and the GI50 (T47D) was 34.3 µM (inactive). For the same compound, the GI50 (U-251) was > 100 µM (inactive), the GI50 (SF-295) was 58.1 µM (inactive) and the GI50 (SNB-75) was > 100 µM (inactive). The GI50 (CCRF-CEM) was 41.3 µM (inactive), the GI50 (DU-145) was > 100 µM (inactive) and the GI50 (HT-29) was 74.8 µM (inactive). The GI50 (COLO 205) was 92.9 µM (inactive), the GI50 (A498) was 80 µM (inactive) and the GI50 (SNB-19) was > 100 µM (inactive). For the same compound, the GI50 (SF-539) was > 100 µM (inactive), the GI50 (UACC-62) was 55 µM (inactive) and the GI50 (NCI-H226) was 86.7 µM (inactive). For the same compound, the GI50 (OVCAR-5) was > 100 µM (inactive).
With `N#CC(C#N)=C1C(C#N)=C(N)NC12OCCO2` the GI50 (Hs-578T) was > 100 µM (inactive), the GI50 (HCT-15) was over 100 µM and the GI50 (MDA-MB-435) was > 100 µM (inactive). The GI50 (MDA-MB-231) was > 100 µM (inactive), the GI50 (786-0) was > 100 µM (inactive) and the GI50 (T47D) was > 100 µM (inactive). For the same compound, the GI50 (U-251) was > 100 µM (inactive), the GI50 (SF-295) was > 100 µM (inactive) and the GI50 (CCRF-CEM) was > 100 µM (inactive). For the same compound, the GI50 (DU-145) was > 100 µM (inactive), the GI50 (HT-29) was > 100 µM (inactive) and the GI50 (COLO 205) was > 100 µM (inactive). The GI50 (A498) was > 100 µM (inactive), the GI50 (Malme-3M) was > 100 µM (inactive) and the GI50 (SNB-19) was > 100 µM (inactive). For the same compound, the GI50 (UACC-62) was > 100 µM (inactive), the GI50 (NCI-H226) was > 100 µM (inactive) and the GI50 (OVCAR-5) was > 100 µM (inactive).
In the case of `COc1ccc(NC(=O)C(C#N)=C(SC)SC)cc1`, the GI50 (Hs-578T) is reported as > 100 µM (inactive), the GI50 (HCT-15) is reported as over 100 µM and the GI50 (MDA-MB-435) is reported as > 100 µM (inactive). The GI50 (MDA-MB-231) was > 100 µM (inactive), the GI50 (786-0) was > 100 µM (inactive) and the GI50 (T47D) was > 100 µM (inactive). For the same compound, the GI50 (U-251) was > 100 µM (inactive), the GI50 (SF-295) was > 100 µM (inactive) and the GI50 (CCRF-CEM) was > 100 µM (inactive). For the same compound, the GI50 (DU-145) was > 100 µM (inactive), the GI50 (HT-29) was > 100 µM (inactive) and the GI50 (COLO 205) was > 100 µM (inactive). The GI50 (A498) was > 100 µM (inactive), the GI50 (Malme-3M) was > 100 µM (inactive) and the GI50 (SNB-19) was > 100 µM (inactive). For the same compound, the GI50 (SF-539) was > 100 µM (inactive), the GI50 (UACC-62) was > 100 µM (inactive) and the GI50 (NCI-H226) was > 100 µM (inactive). For the same compound, the GI50 (OVCAR-5) was > 100 µM (inactive).
In the case of `CN(C)CCCN1C(=O)N(CCCN(C)C)c2c3cc(O)ccc3nc3c([N+](=O)[O-])ccc1c23`, the GI50 (Hs-578T) is reported as 21.5 µM (inactive), the GI50 (HCT-15) is reported as 13.1 µM and the GI50 (MDA-MB-435) is reported as 18 µM (inactive). The GI50 (MDA-MB-231) was 11.6 µM (inactive), the GI50 (786-0) was 8.13 µM (inactive) and the GI50 (T47D) was 30.3 µM (inactive). For the same compound, the GI50 (U-251) was 14.2 µM (inactive), the GI50 (SF-295) was 34.4 µM (inactive) and the GI50 (SNB-75) was 29.3 µM (inactive). For the same compound, the GI50 (DU-145) was 27.9 µM (inactive), the GI50 (HT-29) was 11.8 µM (inactive) and the GI50 (COLO 205) was 13.7 µM (inactive). For the same compound, the GI50 (A498) was 22 µM (inactive), the GI50 (Malme-3M) was 17.8 µM (inactive) and the GI50 (SNB-19) was 10.9 µM (inactive). The GI50 (SF-539) was 16 µM (inactive), the GI50 (UACC-62) was 11.9 µM (inactive) and the GI50 (NCI-H226) was 23.2 µM (inactive). The GI50 (OVCAR-5) was 53.1 µM (inactive).
With `O=C(c1ccccc1)c1c(-c2ccccc2)[nH]n(-c2ccc([N+](=O)[O-])cc2)c(=O)c1=O` the GI50 (Hs-578T) was 0.504 µM (active), the GI50 (HCT-15) was 39.5 µM and the GI50 (MDA-MB-435) was 75.2 µM (inactive). The GI50 (MDA-MB-231) was 30.1 µM (inactive), the GI50 (786-0) was > 100 µM (inactive) and the GI50 (T47D) was 81.8 µM (inactive). The GI50 (U-251) was 5.78 µM (inactive), the GI50 (SF-295) was 46.8 µM (inactive) and the GI50 (CCRF-CEM) was 47 µM (inactive). For the same compound, the GI50 (DU-145) was > 100 µM (inactive), the GI50 (HT-29) was 36.6 µM (inactive) and the GI50 (COLO 205) was > 100 µM (inactive). For the same compound, the GI50 (A498) was > 100 µM (inactive), the GI50 (Malme-3M) was > 100 µM (inactive) and the GI50 (SNB-19) was 6.47 µM (inactive). For the same compound, the GI50 (SF-539) was 28.8 µM (inactive), the GI50 (UACC-62) was < 0.01 µM (active) and the GI50 (NCI-H226) was 39.7 µM (inactive). For the same compound, the GI50 (OVCAR-5) was > 100 µM (inactive).
